These results are taken from ChEMBL document CHEMBL3608278 (J Med Chem, 2015).

The target of test [1] is T1, Potassium voltage-gated channel subfamily A member 3 (Homo sapiens, UniProt P22001). In words: cell-based. Details: species or system Blood.
The target in test [2] is T1, Potassium voltage-gated channel subfamily A member 3. The arrangement: species or system Blood.

pIC50: −log10 of the molar value.

T1 sequence (P22001 whole entry): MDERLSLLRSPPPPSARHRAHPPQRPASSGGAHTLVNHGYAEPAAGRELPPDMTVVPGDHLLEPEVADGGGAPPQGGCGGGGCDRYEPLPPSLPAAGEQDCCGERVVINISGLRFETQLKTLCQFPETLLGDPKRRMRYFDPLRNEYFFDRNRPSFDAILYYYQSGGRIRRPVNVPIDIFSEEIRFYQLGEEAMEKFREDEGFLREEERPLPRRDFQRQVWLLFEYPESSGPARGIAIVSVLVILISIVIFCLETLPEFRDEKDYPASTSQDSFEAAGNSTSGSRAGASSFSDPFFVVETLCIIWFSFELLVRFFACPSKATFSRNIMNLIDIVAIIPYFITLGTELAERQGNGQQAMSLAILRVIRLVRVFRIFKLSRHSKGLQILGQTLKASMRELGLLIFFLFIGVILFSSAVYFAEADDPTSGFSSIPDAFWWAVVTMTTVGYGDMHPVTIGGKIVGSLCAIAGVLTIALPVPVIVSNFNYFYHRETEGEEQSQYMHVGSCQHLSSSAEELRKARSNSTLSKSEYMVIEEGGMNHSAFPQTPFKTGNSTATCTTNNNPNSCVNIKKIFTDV

As usually defined, the pIC50 is the IC50 on a negative log10 scale, so that one unit is a factor of ten. For the molecule `CC[C@H](C)[C@@H]1NC(=O)[C@@H](NC(=O)[C@H](CO)NC(=O)[C@@H](N)Cc2cccc3ccccc23)CSSC[C@@H](C(=O)O)NC(=O)[C@H]([C@@H](C)O)NC(=O)CNC(=O)[C@@H]2CSSC[C@@H]3NC(=O)[C@H](CCC(N)=O)NC(=O)[C@H](Cc4ccccc4)NC(=O)[C@H](C)NC(=O)[C@H]([C@@H](C)O)NC(=O)[C@H](CSSC[C@H](NC(=O)[C@H](Cc4ccccc4)NC(=O)[C@H](CO)NC(=O)[C@H](CC(C)C)NC(=O)[C@H](CCCNC(=N)N)NC(=O)[C@H](Cc4ccc(O)cc4)NC(=O)[C@H](CCCCN)NC(=O)[C@H](CCSC)NC(=O)[C@H](CO)NC(=O)[C@H](Cc4cnc[nH]4)NC(=O)[C@H](CCCCN)NC3=O)C(=O)N[C@@H](CCCNC(=N)N)C(=O)N[C@@H](CCCCN)C(=O)N[C@@H]([C@@H](C)O)C(=O)N2)NC(=O)[C@H](CCCNC(=N)N)NC(=O)[C@H](CO)NC(=O)[C@H](CCCCN)NC(=O)[C@@H]2CCCN2C(=O)[C@H]([C@@H](C)CC)NC(=O)[C@H]([C@@H](C)O)NC(=O)[C@H](CC(=O)O)NC1=O`, the figures for the pIC50 in test [1] and in test [2] were 9.65 and 9.61, respectively.
For `CC[C@H](C)[C@@H]1NC(=O)[C@@H](NC(=O)[C@H](CO)NC(=O)[C@@H](N)CCCNC(=N)N)CSSC[C@@H](C(=O)O)NC(=O)[C@H]([C@@H](C)O)NC(=O)CNC(=O)[C@@H]2CSSC[C@@H]3NC(=O)[C@H](CCC(N)=O)NC(=O)[C@H](Cc4ccccc4)NC(=O)[C@H](C)NC(=O)[C@H]([C@@H](C)O)NC(=O)[C@H](CSSC[C@H](NC(=O)[C@H](Cc4ccccc4)NC(=O)[C@H](CO)NC(=O)[C@H](CC(C)C)NC(=O)[C@H](CCCNC(=N)N)NC(=O)[C@H](Cc4ccc(O)cc4)NC(=O)[C@H](CCCCN)NC(=O)[C@H](CCSC)NC(=O)[C@H](CO)NC(=O)[C@H](Cc4cnc[nH]4)NC(=O)[C@H](Cc4cccc5ccccc45)NC3=O)C(=O)N[C@@H](CCCNC(=N)N)C(=O)N[C@@H](CCCCN)C(=O)N[C@@H]([C@@H](C)O)C(=O)N2)NC(=O)[C@H](CCCNC(=N)N)NC(=O)[C@H](CO)NC(=O)[C@H](CCCCN)NC(=O)[C@@H]2CCCN2C(=O)[C@H]([C@@H](C)CC)NC(=O)[C@H]([C@@H](C)O)NC(=O)[C@H](CC(=O)O)NC1=O`, in that order: 9.38 and 9.43.
The like results for `CC[C@H](C)[C@@H]1NC(=O)[C@@H](NC(=O)[C@H](CO)NC(=O)[C@@H](N)CCCNC(=N)N)CSSC[C@@H](C(=O)O)NC(=O)[C@H]([C@@H](C)O)NC(=O)CNC(=O)[C@@H]2CSSC[C@@H]3NC(=O)[C@H](CCC(N)=O)NC(=O)[C@H](Cc4ccccc4)NC(=O)[C@H](C)NC(=O)[C@H]([C@@H](C)O)NC(=O)[C@H](CSSC[C@H](NC(=O)[C@H](Cc4ccccc4)NC(=O)[C@H](CO)NC(=O)[C@H](C)NC(=O)[C@H](CCCNC(=N)N)NC(=O)[C@H](Cc4ccc(O)cc4)NC(=O)[C@H](CCCCN)NC(=O)[C@H](CCSC)NC(=O)[C@H](CO)NC(=O)[C@H](Cc4cnc[nH]4)NC(=O)[C@H](CCCCN)NC3=O)C(=O)N[C@@H](CCCNC(=N)N)C(=O)N[C@@H](CCCCN)C(=O)N[C@@H]([C@@H](C)O)C(=O)N2)NC(=O)[C@H](CCCNC(=N)N)NC(=O)[C@H](CO)NC(=O)[C@H](CCCCN)NC(=O)[C@@H]2CCCN2C(=O)[C@H]([C@@H](C)CC)NC(=O)[C@H]([C@@H](C)O)NC(=O)[C@H](CC(=O)O)NC1=O` were, in that order, 9.70 and 9.19.
For `CC[C@H](C)[C@@H]1NC(=O)[C@@H](NC(=O)[C@H](CO)NC(=O)[C@@H](N)CCCNC(=N)N)CSSC[C@@H](C(=O)O)NC(=O)[C@H]([C@@H](C)O)NC(=O)[C@H](C)NC(=O)[C@@H]2CSSC[C@@H]3NC(=O)[C@H](CCC(N)=O)NC(=O)[C@H](Cc4ccccc4)NC(=O)[C@H](C)NC(=O)[C@H]([C@@H](C)O)NC(=O)[C@H](CSSC[C@H](NC(=O)[C@H](Cc4ccccc4)NC(=O)[C@H](CO)NC(=O)[C@H](CC(C)C)NC(=O)[C@H](CCCNC(=N)N)NC(=O)[C@H](Cc4ccc(O)cc4)NC(=O)[C@H](CCCCN)NC(=O)[C@H](CCSC)NC(=O)[C@H](CO)NC(=O)[C@H](Cc4cnc[nH]4)NC(=O)[C@H](CCCCN)NC3=O)C(=O)N[C@@H](CCCNC(=N)N)C(=O)N[C@@H](CCCCN)C(=O)N[C@@H]([C@@H](C)O)C(=O)N2)NC(=O)[C@H](CCCNC(=N)N)NC(=O)[C@H](CO)NC(=O)[C@H](CCCCN)NC(=O)[C@@H]2CCCN2C(=O)[C@H]([C@@H](C)CC)NC(=O)[C@H]([C@@H](C)O)NC(=O)[C@H](CC(=O)O)NC1=O`, in that order: 10.23 and 9.91.
On to `CC[C@H](C)[C@@H]1NC(=O)[C@@H](NC(=O)[C@H](CO)NC(=O)[C@@H](N)CCCNC(=N)N)CSSC[C@@H](C(=O)O)NC(=O)[C@H]([C@@H](C)O)NC(=O)CNC(=O)[C@@H]2CSSC[C@@H]3NC(=O)[C@H](CCC(N)=O)NC(=O)[C@H](Cc4ccccc4)NC(=O)[C@H](C)NC(=O)[C@H]([C@@H](C)O)NC(=O)[C@H](CSSC[C@H](NC(=O)[C@H](Cc4ccccc4)NC(=O)[C@H](CO)NC(=O)[C@H](CC(C)C)NC(=O)[C@H](CCCNC(=N)N)NC(=O)[C@H](Cc4ccc(O)cc4)NC(=O)[C@H](CCCCN)NC(=O)[C@H](CCSC)NC(=O)[C@H](CO)NC(=O)[C@H](Cc4cnc[nH]4)NC(=O)[C@H](CCCCN)NC3=O)C(=O)N[C@@H](CCCNC(=N)N)C(=O)N[C@@H](CCCCN)C(=O)N[C@@H]([C@@H](C)O)C(=O)N2)NC(=O)[C@H](Cc2cccc3ccccc23)NC(=O)[C@H](CO)NC(=O)[C@H](CCCCN)NC(=O)[C@@H]2CCCN2C(=O)[C@H]([C@@H](C)CC)NC(=O)[C@H]([C@@H](C)O)NC(=O)[C@H](CC(=O)O)NC1=O`, for which the values for the negative logarithm of the IC50 (pIC50) in test [1] and in test [2] were 8.94 and 8.78, respectively.
The like results for `CC[C@H](C)[C@@H]1NC(=O)[C@@H](NC(=O)[C@H](CO)NC(=O)[C@@H](N)CCCNC(=N)N)CSSC[C@@H](C(=O)O)NC(=O)[C@H]([C@@H](C)O)NC(=O)CNC(=O)[C@@H]2CSSC[C@@H]3NC(=O)[C@H](CCC(N)=O)NC(=O)[C@H](Cc4ccccc4)NC(=O)[C@H](C)NC(=O)[C@H]([C@@H](C)O)NC(=O)[C@H](CSSC[C@H](NC(=O)[C@H](Cc4ccccc4)NC(=O)[C@H](CO)NC(=O)[C@H](CC(C)C)NC(=O)[C@H](CCCNC(=N)N)NC(=O)[C@H](Cc4ccc(O)cc4)NC(=O)[C@H](CCCCN)NC(=O)[C@H](CCSC)NC(=O)[C@H](CO)NC(=O)[C@H](Cc4cccc5ccccc45)NC(=O)[C@H](CCCCN)NC3=O)C(=O)N[C@@H](CCCNC(=N)N)C(=O)N[C@@H](CCCCN)C(=O)N[C@@H]([C@@H](C)O)C(=O)N2)NC(=O)[C@H](CCCNC(=N)N)NC(=O)[C@H](CO)NC(=O)[C@H](CCCCN)NC(=O)[C@@H]2CCCN2C(=O)[C@H]([C@@H](C)CC)NC(=O)[C@H]([C@@H](C)O)NC(=O)[C@H](CC(=O)O)NC1=O` were, in that order, 9.82 and 9.59.
